Consider twelve compounds from US11311544B2, “Treatment of congenital adrenal hyperplasia” (Neurocrine Biosciences, Inc., priority 2014, dated 2022).

Structures are written as SMILES. Where two headings read alike, the source gives them in different places.

The test system of assay [1] is plasma ACTH in adrenalectomized (ADX) rats. The note with it: Fleck et al., cited from earlier work; for effect on plasma ACTH, acute: highest dose 10 mg/kg, 1 hr post-injection, FIG. 3A-C.
Assay [2] addresses T1, CRF1 receptor (Homo sapiens, UniProt P34998).
T1 sequence (P34998 24-415): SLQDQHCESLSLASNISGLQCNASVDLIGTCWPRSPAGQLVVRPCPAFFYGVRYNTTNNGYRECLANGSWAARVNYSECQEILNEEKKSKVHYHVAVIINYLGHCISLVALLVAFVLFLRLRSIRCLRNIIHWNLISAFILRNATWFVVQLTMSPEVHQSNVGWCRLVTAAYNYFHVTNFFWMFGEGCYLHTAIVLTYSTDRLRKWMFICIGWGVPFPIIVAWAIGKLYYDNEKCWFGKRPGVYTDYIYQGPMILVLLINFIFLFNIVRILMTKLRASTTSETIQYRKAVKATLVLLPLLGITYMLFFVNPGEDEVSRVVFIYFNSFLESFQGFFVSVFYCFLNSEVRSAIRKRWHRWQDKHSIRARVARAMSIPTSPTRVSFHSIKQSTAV
The conditions noted are these: as reported in Fleck et al., cited from earlier work; for Ki: Ki=k−1/k1, read-out: Kinetic Ki; for Dissociation t1/2: t1/2=0.693/k−1.

For assay [3], the system named is HPA axis response (ACTH) produced by metyrapone. The experiment in a line: Pharmacodynamic effect of single oral doses on HPA axis response produced by metyrapone in humans. The note with it: human, metyrapone 0.04 g/kg. The format is in vivo.
The test system of assay [4] is 17-OHP and ACTH levels (HPA axis hormones). The experiment in a line: Phase 1 single-dose clinical study in adult females with classical congenital adrenal hyperplasia. It is filed as in vivo, human. The conditions noted are these: adult female classical CAH patients, single bedtime doses. How it is done:
The study was a single-blind, placebo-controlled, single center, fixed-sequence, single-dose clinical trial in adult female classical CAH patients.
The subjects' usual morning dose of concurrent steroidal treatment was delayed until after the 16-hour postdose blood samples were collected (i.e., until approximately 1400 h).
The PD endpoints for this study included the HPA axis biomarkers of interest in this patient population; namely, 17-hydroxyprogesterone (17-OHP; as the primary PD endpoint), adrenocorticotropic hormone (ACTH), androstenedione, testosterone, and serum cortisol levels. The initial analysis of PD variables was an examination of the grouped subject data for each biomarker, expressed as a mean percent change from predose levels for the two active dosing conditions relative to the placebo condition.
This responder analysis yielded a sizeable responder rate of 50% in the study (none of these subjects were responders during the initial placebo treatment period).

For assay [5], the system named is plasma ACTH in adrenalectomized (ADX) rats. The assay is described as follows: Lowering of plasma ACTH in adrenalectomized rats. It is filed as in vivo, rat. The conditions noted are these: 30 mg/kg single oral dose, FIG. 2. The text has this: Adrenalectomy eliminates circulating corticosterone (the primary glucocorticoid) in rats and removes the negative feedback control of the HPA axis at both the hypothalamic and pituitary (corticotroph cells) levels and thus chronically elevates plasma ACTH (see, e.g., Mims et al., J. Natl. Med. Assoc. 69:145-47 (1977)). […] These findings were recapitulated with the small molecule NBI-77860 (Compound I). In adrenalectomized rats, Compound I has potent capability for lowering ACTH.
These findings were recapitulated with the small molecule NBI-77860. […] The duration of efficacy correlated with peak plasma concentrations, with a time course exceeding drug plasma exposure.
Fleck et al. also report the effects of CRF1 receptor antagonists differentiated by their dissociation half-life on plasma ACTH levels in adrenalectomized rats; namely, NBI 30775, NBI 34041 and NBI 35965. […] After a longer duration, a clear difference emerged between NBI 35965 and the other two ligands. The ACTH level returned to the vehicle level by 2 hr for NBI 35965 (FIG. 3C), whereas the response was sustained for 4-6 hr for NBI 30775 and NBI 34041 (FIGS. 3A and 3B).

The mark [6] stands for this setting: Table 2 rate constant used for t1/2.

In the case of `CCCN(CCC)c1cc(C)nc2c(-c3cnc(N(C)C)cc3C)c(C)nn12` [NBI-30775, 5-[7-(dipropylamino)-2,5-dimethylpyrazolo[1,5-a]pyrimidin-3-yl]-N,N,4-trimethylpyridin-2-amine], the “effect on plasma ACTH, acute” value in assay [1] is “reduced ACTH acutely”. Besides, the entries for the “Rate constant (association k1 or dissociation k−1)” value (from here on “Rate constant”) in assay [2] (setting [6]) and in assay [2] (association rate constant) were 0.0054 ± 0.0006 min⁻¹ and 14 ± 2.0 10^6M^−1min^−1, respectively.
One may read the Ki as a measure of affinity in units of concentration, obtained from inhibition or displacement. In the case of `COCC(COC)Nc1nc(C)nc2c(-c3ccc(Cl)cc3Cl)c(C)nn12` [DMP696], in assay [2], the Ki is 9.5 nM and the “Dissociation t1/2” value is reported as 7.3 min. The “Rate constant” value in assay [2] (setting [6]) is 0.095 ± 0.02 min⁻¹. For the same compound, the “Rate constant” value in assay [2] (association rate constant) was 7.7 ± 2 10^6M^−1min^−1.
Take `CCCCN(CC)c1nc(C)nc2c1c(C)c(C)n2-c1c(C)cc(C)cc1C` [antalarmin, N-butyl-N-ethyl-2,5,6-trimethyl-7-(2,4,6-trimethylphenyl)pyrrolo[3,2-e]pyrimidin-4-amine]: the Ki in assay [2] was 3.9 nM. In addition, the “Rate constant” value in assay [2] (setting [6]) was 0.013 ± 0.002 min⁻¹; in assay [2] (association rate constant) it was 3.4 ± 0.6 10^6M^−1min^−1. Further, in assay [2], the “Dissociation t1/2” value is given as 53 min.
Regarding `Cc1nnc2n1-c1ccc(Cl)cc1C(c1ccccc1)=NC2` [alprazolam], the “ACTH AUC (30 min to 4 h) compared to placebo” value in assay [3] (single dose alprazolam 0.75 mg) is “significant reduction”.
Turning to `CCC(CC)Nc1c2c(nc3c(-c4ccc(OC)cc4Cl)c(C)nn13)CCC2` [ONO-2333Ms, 10-(2-chloro-4-methoxyphenyl)-11-methyl-N-(pentan-3-yl)-1,8,12-triazatricyclo[7.3.0.0^3,7] dodeca-2,7,9,11-tetraen-2-amine], in assay [2], the Ki is 15 nM and the “Dissociation t1/2” value is reported as 17 min. Further, the “Rate constant” value in assay [2] (setting [6]) is 0.063 ± 0.029 min⁻¹. Further, in assay [2] (association rate constant), the “Rate constant” value was 4.4 ± 2.2 10^6M^−1min^−1.
For the compound `CC[C@H]1Cn2nc(-c3ccc(Cl)cc3Cl)c3nc(C)cc(c32)N1CC1CC1.CS(=O)(=O)O` [NBI-35965], the “time by which ACTH level returned to the vehicle level” value in assay [1] (10 mg/kg) was not above 2 h. In addition, in assay [1], the “effect on plasma ACTH, acute” value is “reduced ACTH acutely”. Moreover, the Ki in assay [2] was 2.3 nM. The “Rate constant” value was 0.048 ± 0.005 min⁻¹ in assay [2] (setting [6]) and 20 ± 2 10^6M^−1min^−1 in assay [2] (association rate constant). Besides, the “Dissociation t1/2” value in assay [2] is listed as 16 min.
Take `CCCC(CCC)N1CCn2nc(-c3ccc(Cl)cc3Cl)c3nc(C)cc1c32` [NBI-34041, 3-(2,4-dichlorophenyl)-9-(heptan-4-yl)-6-methyl-1,2,5,9-tetraazatricyclo[6.3.1.0^4,12] dodeca-2,4(12),5,7-tetraene]: the “effect on plasma ACTH, acute” value in assay [1] is “reduced ACTH acutely”. Further, in assay [2], the Ki is 1.7 nM and the “Dissociation t1/2” value is 53 min. In assay [2] (setting [6]), the “Rate constant” value is 0.013 ± 0.002 min⁻¹. In addition, the “Rate constant” value in assay [2] (association rate constant) was 8.3 ± 2.0 10^6M^−1min^−1.
Turning to `CC[C@@H](C)Nc1nc(C)nc2c(-c3ccc(OC)nc3C)c(C)nn12` [pexacerfont, N-[(2R)-butan-2-yl]-8-(6-methoxy-2-methylpyridin-3-yl)-2,7-dimethylpyrazolo[1,5-a][1,3,5]triazin-4-amine], the “Rate constant” value in assay [2] (setting [6]) is 0.049 ± 0.001 min⁻¹; in assay [2] (association rate constant), 2.6 ± 0.1 10^6M^−1min^−1. In addition, in assay [2], the “Dissociation t1/2” value is listed as 14 min.
In the case of `CCC(CC)Oc1cc(C)nc(Oc2c(C)cc(C)cc2C)c1C` [CP-316,311, 3,6-dimethyl-4-(pentan-3-yloxy)-2-(2,4,6-trimethylphenoxy) pyridine], in assay [2], the Ki is 12 nM. For the same compound, the “Rate constant” value in assay [2] (setting [6]) is 0.17 ± 0.04 min⁻¹; in assay [2] (association rate constant), 13 ± 2 10^6M^−1min^−1. Moreover, in assay [2], the “Dissociation t1/2” value is on record as 4.1 min.
For `CCCN(CC1CC1)c1nc(C)nc(Nc2c(Cl)cc(Cl)cc2Cl)c1Cl` [NBI-27914], in assay [2], the Ki is 25 nM and the “Dissociation t1/2” value is 2.6 min. In assay [2] (setting [6]), the “Rate constant” value was 0.27 ± 0.07 min⁻¹. For the same compound, the “Rate constant” value in assay [2] (association rate constant) is reported as 9.4 ± 3 10^6M^−1min^−1.
As to `CC[C@H](Nc1cc(C)nc2c(-c3ccc(OC)cc3C)c(C)nn12)c1nc(C)no1` [NBI-77860, 2,5-dimethyl-3-[2-methyl-4-(methyloxy)phenyl]-N-[(1S)-1-(3-methyl-1,2,4-oxadiazol-5-yl)propyl]pyrazolo[1,5-a]pyrimidin-7-amine], the “ACTH AUC (30 min to 4 h) compared to placebo” value is listed as “increase” in assay [3] (single oral dose 10 mg), “non-significant reduction” in assay [3] (single oral dose 50 mg) and “significant reduction” in assay [3] (single oral dose 400 mg). In addition, the “ACTH AUC (2 h to 4 h) compared with placebo” value in assay [3] (single oral dose 10 mg) was “reduction was not seen”; in assay [3] (single oral dose 50 mg) it was “significant reduction”; in assay [3] (single oral dose 400 mg) it was “significant reduction”. The “effects on 17-OHP and ACTH, 300 mg dose compared with 600 mg dose” value in assay [4] is listed as “nearly identical effects”. Also, the “duration of significant lowering of plasma ACTH levels” value in assay [5] is listed as “up to 5 hours”.
For `CCC(CC)Nc1cc(C)nc2c(-c3ccc(OC)cc3C)c(C)nn12` [DMP904], in assay [2], the Ki is 0.38 nM. Moreover, the “Rate constant” value was 0.0072 ± 0.002 min⁻¹ in assay [2] (setting [6]) and 18 ± 1 10^6M^−1min^−1 in assay [2] (association rate constant).
